Test results taken from patent publication US5968920A, “Compounds having a benzisoselen-azoline and -azine structure, method for preparing same and therapeutic uses thereof” (Oxis Isle of Man, Limited, priority 1994, dated 1999).

Legend:
[1] = tested on: endothelial cells; assay: Endothelial changes induced by PMN and TNF-α (von Willebrandt factor release); format: cell-based, human; conditions: BXT compounds 10 μM, pentoxifylline 50 μM; TNF-α 1 ng/ml; 3.5 h
Description: (§1) Human endothelial cells were cultivated under the same conditions as those described for Example 18.
(§2) When the cells were near confluence, they were incubated for one hour in the presence or absence of the following compounds: BXT-51072, BXT-51077 or pentoxifylline. Compounds BXT-51072 and BXT-51077, each at 10 μM, and the pentoxifylline, at 50 μM, were incorporated in culture medium containing 2% of foetal calf serum, all other conditions being the same. […] Myeloperoxidase (MPO), an enzyme specifically contained in PMNs, was then measured in the cell lysates obtained to evaluate adhesion of the PMNs on the endothelial cells. The von Willebrandt factor (vWf) liberated in the culture medium by the endothelial cells was measured after three and a half hours of incubation, as a label of the changes in the cells.
(§3) Incubation of the endothelial cells in the presence of PMN and TNF-α led to a very significant increase in the quantity of MPO and vWf with respect to the respective controls (PMN alone, and endothelial cells alone respectively), meaning the adhesion of activated PMNs to the endothelial cells and changes in the latter.
(§4) They are expressed as the percentage inhibition by referring the MPO and vWf measurements to the respective concentrations of MPO and vWf determined when the endothelial cells were incubated with TNF-α and PMNs.

[2] = Glutathione peroxidase activity, hydrogen peroxide; format: biochemical; conditions: compound 20 μM, pH = 7.3, 37° C., [GSH] = 2 mM
Description: (§5) To 1.5 ml of HEPES buffer, 50 mM, pH=7.3, containing 0.2 mM of DTPA, 0.144 mM of NADPH, 2.2 mM of reduced glutathione and 1.1 U/ml of glutathione disulfide reductase, pre-equilibrated for 2 minutes at 37° C., 100 μl of an ethanolic mother solution of the compound to be tested or 100 μl of absolute ethanol (blank) was added. Each compound was tested at a final concentration of 20 μM.
(§6) Subsequently, 50 μl of the following was added:
or hydrogen peroxide (H2 O2), 1.6 mM in ultrapure water;
(§7) or the hydroperoxide of linoleic acid (18:2-OOH) prepared using soya lipoxygenase (see M. O. Funk et al., Lipids, (1976), 11, pp 113-117), 3.3 mM in a water/methanol mixture, 85/15 (V/V). The glutathione peroxidase activity was measured at 37° C. by measuring the reduction in absorbance at 340 nm over 5 minutes. The initial enzymatic rate or activity was proportional to the slope of the plot of absorbance against time.
(§8) They are expressed in nmoles of hydroperoxide reduced per minute.

[3] = tested on: P-selectin; assay: Endothelial expression of P-selectin induced by TNF-α (ELISA); format: cell-based; conditions: Homo sapiens, Endothelial cell; compound 10 μM; TNF-α 1 ng/ml; 3 to 4 hours; read-out: inhibition of TNF-α induced increase in expression of P-selectin
Description: Human endothelial cells were cultivated under the same conditions as those described for Example 18. When the cells were near confluence, they were incubated for one hour in the presence or absence of BXT-51072 at 10 μM in culture medium containing 2% of foetal calf serum, all other conditions being the same. The cells were then washed three times with a PBS buffer. The cells which had not been pretreated by a compound were incubated in the presence or absence (control) of TNF-α, at 1 ng/ml, in the same culture medium. The pretreated cells were incubated under the same conditions, but the medium also contained BXT-51072 at 10 μM. After 3 to 4 hours of incubation, the cells were washed with a PBS buffer and fixed with 2% formaldehyde in a PBS buffer.

[4] = Glutathione peroxidase activity, t-BuOOH as hydroperoxide; format: biochemical; conditions: compound 20 μM, pH = 7.3, 37° C., [GSH] = 2 mM
Description: as §5, §6
tertiobutyl hydroperoxide (t-BuOOH), 6.6 mM in ultrapure water;
as §7, §8

[5] = tested on: endothelial cells; assay: Adhesion of PMN to endothelial cells induced by TNF-α (myeloperoxidase); format: cell-based, human; conditions: compound 10 μM vs pentoxifylline 50 μM; TNF-α 1 ng/ml
Description: as §1, §2, §3, §4

[6] = tested on: rat; assay: Tolerance after repeated oral administration to the rat in vivo; design: species or system Sprague-Dawley rat; conditions: 14 days
Description: Male adult Sprague-Dawley rats were randomly divided into 4 groups. To one group of 10 rats and another group of 15 rats, one dose of 10 μmoles and one dose of 100 μmoles per kilogram of body weight of BXT-51072 were respectively orally administered (force feeding) each day for 14 days. These doses were administered using an aqueous solution containing 1% of sodium carboxymethylcellulose (CMC). Using the same procedure, a third group of 12 rats received only the vector (1% CMC) and a […] group of 3 rats received no force feeding.
In order to evaluate any toxicity in the test compound, all the animals were regularly weighed over the 14 days. Their appearance and behavior were observed daily.
About 16 hours after the final administration, the rats were anaesthetised with ketamine and blood samples were taken by intra-cardiac tapping to measure different hematological and biochemical parameters. The weight curves of the animals are shown in FIGS. 5 and 6 and Table 3 summarises the results of measurements carried out on the blood of the animals and the corresponding deviations.

[7] = 10 and 100 μmoles/kg oral daily

Compound: CC1(C)CN[Se]c2ccccc21 [BXT-51072, 4,4-dimethyl-benzisoselenazine]
- protection of endothelial cells against the deleterious effects of activated PMNs (vWf) [1]: protect endothelial cells against the deleterious effects of activated PMNs
- Glutathione peroxidase activity, H2 O2 [2]: 42.0 nmoles of hydroperoxide reduced/min
- inhibition at 10 µM [3]: > 90%
- Glutathione peroxidase activity, t--BuOOH [4]: 27.4 nmoles of hydroperoxide reduced/min
- inhibition of the adhesion of PMN induced by TNF-α (MPO) [5]: inhibit the adhesion of PMN induced by TNF-α, much more effectively than pentoxifylline
- BAS (basophiles) ([6]; 10 μmoles/kg oral, n 4): 0%
- EOS (eosinophiles) ([6]; 10 μmoles/kg oral, n 4): 0%
- GB (White cells) ([6]; 10 μmoles/kg oral, n 4): 8.45 G/l
- GR (Red cells) ([6]; 10 μmoles/kg oral, n 4): 6.88 T/l
- HB (Hemoglobin) ([6]; 10 μmoles/kg oral, n 4): 9.08 mM
- HCT (Hematocrit) ([6]; 10 μmoles/kg oral, n 4): 0.41
- LYM (Lymphocytes) ([6]; 10 μmoles/kg oral, n 4): 82%
- MON (Monocytes) ([6]; 10 μmoles/kg oral, n 4): 0%
- NEU (neutrophiles) ([6]; 10 μmoles/kg oral, n 4): 18%
- PAL (Alkaline phosphalase) ([6]; 10 μmoles/kg oral, n 4): 320 Ul/l
- PLT (Platelets) ([6]; 10 μmoles/kg oral, n 4): 541 G/l
- Urea ([6]; 10 μmoles/kg oral, n 4): 4.03 mM
- VGM (Average cell volume of GR) ([6]; 10 μmoles/kg oral, n 4): 59.8 II
- K^+ ([6]; 10 μmoles/kg oral, n = 1): 5.0 mM
- Na^+ ([6]; 10 μmoles/kg oral, n = 1): 143 mM
- Cl^- ([6]; 10 μmoles/kg oral, n = 2): 93 mM
- Prot (Proteins) ([6]; 10 μmoles/kg oral, n = 2): 53.9 g/L
- ALAT (Alanine aminotransferase) ([6]; 10 μmoles/kg oral, n = 3): 50 Ul/l
- ASAT (Aspartale aminotransferase) ([6]; 10 μmoles/kg oral, n = 3): 136 Ul/l
- weight gain ([6]; 100 μmoles/kg oral daily): slight slowing in weight gain
- BAS (basophiles) ([6]; 100 μmoles/kg oral, n 7): 0%
- EOS (eosinophiles) ([6]; 100 μmoles/kg oral, n 7): 1%
- GB (White cells) ([6]; 100 μmoles/kg oral, n 7): 7.57 G/l
- GR (Red cells) ([6]; 100 μmoles/kg oral, n 7): 7.44 T/l
- HB (Hemoglobin) ([6]; 100 μmoles/kg oral, n 7): 9.46 mM
- HCT (Hematocrit) ([6]; 100 μmoles/kg oral, n 7): 0.43
- LYM (Lymphocytes) ([6]; 100 μmoles/kg oral, n 7): 81%
- MON (Monocytes) ([6]; 100 μmoles/kg oral, n 7): 0%
- NEU (neutrophiles) ([6]; 100 μmoles/kg oral, n 7): 18%
- PLT (Platelets) ([6]; 100 μmoles/kg oral, n 7): 517 G/l
- VGM (Average cell volume of GR) ([6]; 100 μmoles/kg oral, n 7): 57.6 II
- K^+ ([6]; 100 μmoles/kg oral, n = 2): 5.0 mM
- Na^+ ([6]; 100 μmoles/kg oral, n = 2): 143 mM
- ALAT (Alanine aminotransferase) ([6]; 100 μmoles/kg oral, n = 4): 58 Ul/l
- ASAT (Aspartale aminotransferase) ([6]; 100 μmoles/kg oral, n = 4): 133 Ul/l
- Cl^- ([6]; 100 μmoles/kg oral, n = 4): 93 mM
- Prot (Proteins) ([6]; 100 μmoles/kg oral, n = 4): 55.0 g/L
- PAL (Alkaline phosphalase) ([6]; 100 μmoles/kg oral, n = 5): 310 Ul/l
- Urea ([6]; 100 μmoles/kg oral, n = 5): 4.05 mM
- mortality [6, 7]: none of the animals had died
- other signs of toxicity [6, 7]: no other sign of toxicity
- tolerance ([6]; repeated oral administration): tolerated well
